Source: ChEMBL document CHEMBL6120986, “In silico inspired design of urea noscapine congeners as anticancer agents: Chemical synthesis and experimental evaluation using breast cancer cells and a xenograft mouse model” (Eur J Med Chem, 2025)

Legend:
[1] = system: MCF7; experiment: Antiproliferative activity against human MCF7 cells assessed as inhibition of cell proliferation incubated for 72 hrs by SRB assay; assay type: functional, cell-based; settings: MCF7, 72 h
[2] = system: MDA-MB-231; experiment: Antiproliferative activity against human MDA-MB-231 cells assessed as inhibition of cell proliferation incubated for 72 hrs by SRB assay; assay type: functional, cell-based; settings: MDA-MB-231, 72 h
[3] = Cytotoxicty against HEK cells incubated for 72 hrs by SRB assay; assay type: toxicity, cell-based; settings: human

Structure (SMILES) | IC50 [1] | IC50 [2] | IC50 at 72 h [3]
COc1cc(NC(=O)Nc2c3c(c(OC)c4c2OCO4)[C@H]([C@H]2OC(=O)c4c2ccc(OC)c4OC)N(C)CC3)cc(OC)c1OC | 36.1 µM | 48.1 µM | 294 µM
COc1ccc(NC(=O)Nc2c3c(c(OC)c4c2OCO4)[C@H]([C@H]2OC(=O)c4c2ccc(OC)c4OC)N(C)CC3)c(OC)c1 | 17.5 µM | 20.4 µM | 306 µM
COc1ccc2c(c1OC)C(=O)O[C@@H]2[C@H]1c2c(c(NC(=O)Nc3ccc(F)c(Cl)c3)c3c(c2OC)OCO3)CCN1C | 32.7 µM | 35.2 µM | 285 µM
